Laboratory results from ChEMBL document CHEMBL1201862, “PubChem BioAssay data set” (2004).
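Values below derive from 48-hour exposures of cells grown in 96-well plates, with endpoints linearly interpolated between the two concentrations bracketing the appropriate inhibition level. GI50 = concentration required for 50% inhibition of growth.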 Active and inactive are the calls of the source. Cut-off read from the data, not from the text of the source: active = GI50 up to about 1.1 µM and inactive = higher.

Legend:
Test in all cases: inhibition of tumour cell growth, NCI panel, 48 h
UACC-62 = test system: UACC-62
DU-145 = test system: DU-145
A549 = test system: A549
HT-29 = test system: HT-29
K562 = test system: K562
M14 = test system: M14
MDA-N = test system: MDA-N
BT-549 = test system: BT-549
LOX IMVI = test system: LOX IMVI
SK-MEL-28 = test system: SK-MEL-28
HOP-62 = test system: HOP-62
SF-539 = test system: SF-539
SNB-75 = test system: SNB-75
UO-31 = test system: UO-31
SK-MEL-2 = test system: SK-MEL-2
TK-10 = test system: TK-10
786-0 = test system: 786-0
CAKI-1 = test system: CAKI-1
NCI/ADR-RES = test system: NCI/ADR-RES
RPMI-8226 = test system: RPMI-8226

| Compound | GI50 (UACC-62) | GI50 (DU-145) | GI50 (A549) | GI50 (HT-29) | GI50 (K562) | GI50 (M14) | GI50 (MDA-N) | GI50 (BT-549) | GI50 (LOX IMVI) | GI50 (SK-MEL-28) | GI50 (HOP-62) | GI50 (SF-539) | GI50 (SNB-75) | GI50 (UO-31) | GI50 (SK-MEL-2) | GI50 (TK-10) | GI50 (786-0) | GI50 (CAKI-1) | GI50 (NCI/ADR-RES) | GI50 (RPMI-8226) |
| --- | --- | --- | --- | --- | --- | --- | --- | --- | --- | --- | --- | --- | --- | --- | --- | --- | --- | --- | --- | --- |
| Clc1ccc(COC(Cn2ccnc2)c2ccc(Cl)cc2Cl)cc1 (stereo not given) [ECONAZOLE NITRATE] | 9.86 µM (inactive) | 14.4 µM (inactive) | 9.79 µM (inactive) | 8.49 µM (inactive) | 4.62 µM (inactive) | 13 µM (inactive) | 11.9 µM (inactive) | 15.2 µM (inactive) | 9.57 µM (inactive) | 14.8 µM (inactive) | 15.5 µM (inactive) | 13.6 µM (inactive) | 15.6 µM (inactive) | 3.41 µM (inactive) | 15 µM (inactive) | 11.4 µM (inactive) | 12.6 µM (inactive) | 7.31 µM (inactive) | 5.42 µM (inactive) | 4.22 µM (inactive) |
| COC(=O)c1ccc2[nH]c3c(c2c1)CC(=O)Nc1ccccc1-3 | > 100 µM (inactive) | 45.7 µM (inactive) | > 100 µM (inactive) | > 100 µM (inactive) | 27.4 µM (inactive) | 35.8 µM (inactive) | > 100 µM (inactive) | 1.86 µM (inactive) | > 100 µM (inactive) | > 100 µM (inactive) | 24.3 µM (inactive) | 2.94 µM (inactive) | 2.3 µM (inactive) | 0.0278 µM (active) | > 100 µM (inactive) | 83.9 µM (inactive) | > 100 µM (inactive) | 56 µM (inactive) | > 100 µM (inactive) | > 100 µM (inactive) |
| CC1Cc2cc(O)ccc2C2[C@@H]1C1CC[C@H](O)[C@@]1(C)C[C@@H]2O[N+](=O)[O-] (stereo not given in full) | 5.46 µM (inactive) | 7.45 µM (inactive) | 11 µM (inactive) | 16 µM (inactive) | 3.79 µM (inactive) | 6.15 µM (inactive) | 1.96 µM (inactive) | 10.9 µM (inactive) | 9.2 µM (inactive) | 17.5 µM (inactive) | 8.83 µM (inactive) | 3.79 µM (inactive) | 10.3 µM (inactive) | 13.7 µM (inactive) | 5.46 µM (inactive) | 13.2 µM (inactive) | 8.26 µM (inactive) | 10.2 µM (inactive) | 3.82 µM (inactive) | 5.64 µM (inactive) |
| O=C(c1c(F)c(F)c(F)c(F)c1F)N1CCN(C(=O)c2c(F)c(F)c(F)c(F)c2F)C1=S | 4.5 µM (inactive) | 14 µM (inactive) | 14.4 µM (inactive) | 5.48 µM (inactive) | 1.96 µM (inactive) | 1.56 µM (inactive) | 2.48 µM (inactive) | 13.6 µM (inactive) | 2.51 µM (inactive) | 4.8 µM (inactive) | 15.2 µM (inactive) | 10.8 µM (inactive) | 11 µM (inactive) | 5.55 µM (inactive) | 2.11 µM (inactive) | 13.9 µM (inactive) | 13.2 µM (inactive) | 2.69 µM (inactive) | 7.33 µM (inactive) | 2.43 µM (inactive) |
| CC(C)NC(NC(C)C)=C(S(=O)(=O)C(F)(F)C(F)(F)C(F)(F)C(F)(F)F)S(=O)(=O)C(F)(F)C(F)(F)C(F)(F)C(F)(F)F | > 100 µM (inactive) | > 100 µM (inactive) | > 100 µM (inactive) | > 100 µM (inactive) | > 100 µM (inactive) | > 100 µM (inactive) | > 100 µM (inactive) | 90.8 µM (inactive) | > 100 µM (inactive) | > 100 µM (inactive) | > 100 µM (inactive) | > 100 µM (inactive) | > 100 µM (inactive) | > 100 µM (inactive) | > 100 µM (inactive) | > 100 µM (inactive) | > 100 µM (inactive) | > 100 µM (inactive) | > 100 µM (inactive) | > 100 µM (inactive) |
